Here are results for twelve compounds from patent US8841312B2, “Fused pyridine, pyrimidine and triazine compounds as cell cycle inhibitors” (Amgen Inc., priority 2007, dated 2014).

Broadly, the IC50 is the concentration that inhibits the measured activity by half.

Chain of Cdk4/CyclinD1 (P11802 whole entry): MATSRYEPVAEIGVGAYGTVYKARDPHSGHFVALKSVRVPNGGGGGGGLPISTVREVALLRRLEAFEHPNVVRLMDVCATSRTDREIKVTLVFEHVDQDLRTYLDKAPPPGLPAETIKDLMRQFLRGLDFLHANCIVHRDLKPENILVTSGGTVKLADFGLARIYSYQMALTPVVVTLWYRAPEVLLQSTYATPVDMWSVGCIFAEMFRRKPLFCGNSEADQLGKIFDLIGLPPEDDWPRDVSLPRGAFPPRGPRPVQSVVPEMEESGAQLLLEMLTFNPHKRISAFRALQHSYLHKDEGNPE
Chain of Cdk4/CyclinD1 (P24385 whole entry partner): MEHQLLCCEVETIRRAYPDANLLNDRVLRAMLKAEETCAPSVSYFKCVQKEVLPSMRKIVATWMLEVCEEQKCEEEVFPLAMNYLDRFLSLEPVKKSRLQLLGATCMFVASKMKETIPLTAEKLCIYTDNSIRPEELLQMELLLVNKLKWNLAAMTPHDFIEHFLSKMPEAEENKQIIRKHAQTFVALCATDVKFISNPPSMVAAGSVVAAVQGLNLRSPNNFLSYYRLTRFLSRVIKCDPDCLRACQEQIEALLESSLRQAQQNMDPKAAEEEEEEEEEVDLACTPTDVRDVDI

This assay addresses Cdk4/CyclinD1 (Homo sapiens (Human), UniProt P11802). Description: Cdk4 kinase inhibition assay with recombinant Cdk4/CyclinD1, Rb substrate, [33P]-ATP filter plate. The format is biochemical. To be noted: 25 μM ATP, read-out: Cdk 4 IC50. On the procedure: The Cdk4 and Cdk6 inhibitory activity of the compounds is measured with a kinase inhibition assay using recombinant Cdk4/CyclinD1 or Cdk6/CyclinD3 protein complexes. The protein substrate used in the assay is the retinoblastoma protein (Rb). The kinase reactions are carried out in a 96-well filter plate (MSDV N6B50, Millipore). […] The mixture is incubated at room temperature for 1 hour and the proteins precipitated with an equal volume of 20% TCA. The plates are washed with 10% TCA according to the manufacturer's instruction and dried at room temperature. The amount of the phosphorylated Rb is determined with a TopCount (PerkinElmer). The IC50 of a compound is determined by nonlinear regression curve fitting using software program Prism 5 (GraphPad Software).
As for `Cc1nc(Nc2ncc3c4ccnc(Cl)c4n(C4CCCC4)c3n2)ccc1N1CCNCC1` [Example 155, 8-Chloro-9-cyclopentyl-N-(6-methyl-5-(1-piperazinyl)-2-pyridinyl)-9H-pyrido[4′,3′:4,5]pyrrolo[2,3-d]pyrimidin-2-amine], the IC50 was 4.1 nM. Consider `CC(C)n1c2cnccc2c2cnc(Nc3ccc(N4CCNCC4)cn3)nc21` [Example 159, 9-(1-methylethyl)-N-(5-(1-piperazinyl)-2-pyridinyl)-9H-pyrido[4′,3′:4,5]pyrrolo[2,3-d]pyrimidin-2-amine], for which the half-inhibitory concentration (IC50) was 3 nM. For `OCCN1CCN(c2ccc(Nc3ncc4c5ccnc(Cl)c5n(C5CCCC5)c4n3)nc2)CC1` [Example 166, 2-(4-(6-((8-Chloro-9-cyclopentyl-9H-pyrido[4′,3′:4,5]pyrrolo[2,3-d]pyrimidin-2-yl)amino)-3-pyridinyl)-1-piperazinyl)ethanol], the IC50 was 5.5 nM. With `OCCN1CCN(c2ccc(Nc3ncc4c5ccnc(F)c5n(C5CCCC5)c4n3)nc2)CC1` [Example 170, 2-(4-(6-((9-Cyclopentyl-8-fluoro-9H-pyrido[4′,3′:4,5]pyrrolo[2,3-d]pyrimidin-2-yl)amino)-3-pyridinyl)-1-piperazinyl)ethanol], the IC50 was 2.5 nM. Regarding `Cc1nc(Nc2ncc3c4ccnc(F)c4n(C4CCCC4)c3n2)ccc1N1CCNCC1` [Example 171, 9-Cyclopentyl-8-fluoro-N-(6-methyl-5-(1-piperazinyl)-2-pyridinyl)-9H-pyrido[4′,3′:4,5]pyrrolo[2,3-d]pyrimidin-2-amine], the 50% inhibitory concentration (IC50) was found to be 19 nM. Under `CC(C)(O)CN1CCN(c2ccc(Nc3ncc4c5ccnc(F)c5n(C5CCCC5)c4n3)nc2)CC1` [Example 172, 1-(4-(6-((9-Cyclopentyl-8-fluoro-9H-pyrido[4′,3′:4,5]pyrrolo[2,3-d]pyrimidin-2-yl)amino)-3-pyridinyl)-1-piperazinyl)-2-methyl-2-propanol] stands 5.6 nM; under `N#CCC1CCN(c2ccc(Nc3ncc4c5ccnc(F)c5n(C5CCCC5)c4n3)nc2)CC1` [Example 173, (1-(6-((9-Cyclopentyl-8-fluoro-9H-pyrido[4′,3′:4,5]pyrrolo[2,3-d]pyrimidin-2-yl)amino)-3-pyridinyl)-4-piperidinyl)acetonitrile], 56 nM.

Regarding `COC(=O)CC1CCN(c2ccc(Nc3ncc4c5ccnc(F)c5n(C5CCCC5)c4n3)nc2)CC1` [Example 174, Methyl (1-(6-((9-cyclopentyl-8-fluoro-9H-pyrido[4′,3′:4,5]pyrrolo[2,3-d]pyrimidin-2-yl)amino)-3-pyridinyl)-4-piperidinyl)acetate], the IC50 was 33 nM. On to `O=C(O)CC1CCN(c2ccc(Nc3ncc4c5ccnc(F)c5n(C5CCCC5)c4n3)nc2)CC1` [Example 175, (1-(6-((9-Cyclopentyl-8-fluoro-9H-pyrido[4′,3′:4,5]pyrrolo[2,3-d]pyrimidin-2-yl)amino)-3-pyridinyl)-4-piperidinyl)acetic acid], for which the IC50 amounted to 37 nM.

As to `NC(=O)CC1CCN(c2ccc(Nc3ncc4c5ccnc(F)c5n(C5CCCC5)c4n3)nc2)CC1` [Example 176, 2-(1-(6-((9-Cyclopentyl-8-fluoro-9H-pyrido[4′,3′:4,5]pyrrolo[2,3-d]pyrimidin-2-yl)amino)-3-pyridinyl)-4-piperidinyl)acetamide], the 50% inhibitory concentration (IC50) was found to be 930 nM. Under `C[C@H]1CNCCN1c1ccc(Nc2ncc3c4ccnc(F)c4n(C4CCCC4)c3n2)nc1` [Example 177, 9-Cyclopentyl-8-fluoro-N-(5-((2S)-2-methyl-1-piperazinyl)-2-pyridinyl)-9H-pyrido[4′,3′:4,5]pyrrolo[2,3-d]pyrimidin-2-amine] stands 5 nM. For the compound `C[C@@H]1CN(c2ccc(Nc3ncc4c5ccnc(F)c5n(C5CCCC5)c4n3)nc2)CCN1` [Example 178, 9-Cyclopentyl-8-fluoro-N-(5-((3R)-3-methyl-1-piperazinyl)-2-pyridinyl)-9H-pyrido[4′,3′:4,5]pyrrolo[2,3-d]pyrimidin-2-amine], the IC50 is 5 nM.
